Measurements published in patent US6773803B2, “Far-infrared emission powder with antibacterial activity and bio-wave steel plate coated with resin containing same” (Posco, priority 2000, dated 2004).

Assay: pH of aqueous solution after adding 30 g powder to 100 g water
Type: physicochemical
Settings: powder dissolved in distilled water, result in words
Procedure: After the addition of the alkaline oxides or hydroxides, the aqueous solutions were measured for pH and the results are given in Table 1.

influence on the pH of the distilled water | Compound
no influence on the pH | [O]=[Ti]=[O] [Material No. C. 1, TiO2]
no influence on the pH | [O]=[Al][O][Al]=[O] [Material No. C. 2, Al2O3]
no influence on the pH | O=[Si]=O [Material No. C. 3, SiO2]
